# Measurements reported in ChEMBL document CHEMBL4196231, “Peptidomimetics for Targeting Protein-Protein Interactions between DOT1L and MLL Oncofusion Proteins AF9 and ENL” (ACS Med Chem Lett, 2018).
# Square brackets hold non-standard residues; d marks the D form. Peptide text beside a SMILES is read from it. * marks the point of attachment. X3 = c1ccc(-c2cn(CC3CCCCC3)c([C@@H]3CCCN3*)n2)cc1; X2 = CC(C)n1cc(-c2ccccc2)nc1[C@@H]1CCCN1*; X1 = CCn1cc(-c2ccccc2)nc1[C@@H]1CCCN1*; 1Nal = N[C@@H](Cc1cccc2ccccc12)C(=O)O; 2Nal = N[C@@H](Cc1ccc2ccccc2c1)C(=O)O; X4 = Cn1cc(-c2ccccc2)nc1[C@@H]1CCCN1*; Ala(cPent) = N[C@@H](CC1CCCC1)C(=O)O; Gly(cPent) = N[C@H](C(=O)O)C1CCCC1; Ala(cPr) = N[C@@H](CC1CC1)C(=O)O; Pentanoyl(4-Me) = CC(C)CCC(=O)*; Cha = N[C@@H](CC1CCCCC1)C(=O)O; Cba = N[C@@H](CC1CCC1)C(=O)O; Chg = N[C@H](C(=O)O)C1CCCCC1; Orn = NCCC[C@H](N)C(=O)O; Dap = NC[C@H](N)C(=O)O; Bz = O=C(c1ccccc1)*
# Legend:
# Protein AF-9 = molecular target: T1, Protein AF-9 (Homo sapiens, UniProt P42568); experiment: Displacement of N-Flu-DOT1L from MBP-tagged AF9 (unknown origin) (487 to 568 residues) expressed in Escherichia coli BL21(DE3) measured after 3 hrs by fluorescence polarization assay
# T1 sequence (P42568 whole entry): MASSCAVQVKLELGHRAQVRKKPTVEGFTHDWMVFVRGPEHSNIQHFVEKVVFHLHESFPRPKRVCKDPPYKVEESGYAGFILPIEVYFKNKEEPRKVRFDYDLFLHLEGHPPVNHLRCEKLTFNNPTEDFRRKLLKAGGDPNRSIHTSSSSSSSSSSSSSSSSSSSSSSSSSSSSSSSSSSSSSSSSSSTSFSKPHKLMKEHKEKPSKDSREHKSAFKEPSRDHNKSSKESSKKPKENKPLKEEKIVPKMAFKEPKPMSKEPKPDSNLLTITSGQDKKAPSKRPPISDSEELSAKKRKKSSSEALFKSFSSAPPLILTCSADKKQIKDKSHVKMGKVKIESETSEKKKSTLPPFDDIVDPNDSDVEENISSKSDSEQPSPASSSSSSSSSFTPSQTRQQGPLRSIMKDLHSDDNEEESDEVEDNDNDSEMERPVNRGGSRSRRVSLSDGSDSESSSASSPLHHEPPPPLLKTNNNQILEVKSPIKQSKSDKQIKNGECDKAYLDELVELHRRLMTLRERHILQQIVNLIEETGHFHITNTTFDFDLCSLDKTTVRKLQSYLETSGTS
# Protein ENL = molecular target: T2, Protein ENL (Homo sapiens, UniProt Q03111); experiment: Displacement of N-Flu-DOT1L from MBP-tagged ENL (unknown origin) (489 to 559 residues) expressed in Escherichia coli BL21(DE3) measured after 3 hrs by fluorescence polarization assay
# T2 sequence (Q03111 whole entry): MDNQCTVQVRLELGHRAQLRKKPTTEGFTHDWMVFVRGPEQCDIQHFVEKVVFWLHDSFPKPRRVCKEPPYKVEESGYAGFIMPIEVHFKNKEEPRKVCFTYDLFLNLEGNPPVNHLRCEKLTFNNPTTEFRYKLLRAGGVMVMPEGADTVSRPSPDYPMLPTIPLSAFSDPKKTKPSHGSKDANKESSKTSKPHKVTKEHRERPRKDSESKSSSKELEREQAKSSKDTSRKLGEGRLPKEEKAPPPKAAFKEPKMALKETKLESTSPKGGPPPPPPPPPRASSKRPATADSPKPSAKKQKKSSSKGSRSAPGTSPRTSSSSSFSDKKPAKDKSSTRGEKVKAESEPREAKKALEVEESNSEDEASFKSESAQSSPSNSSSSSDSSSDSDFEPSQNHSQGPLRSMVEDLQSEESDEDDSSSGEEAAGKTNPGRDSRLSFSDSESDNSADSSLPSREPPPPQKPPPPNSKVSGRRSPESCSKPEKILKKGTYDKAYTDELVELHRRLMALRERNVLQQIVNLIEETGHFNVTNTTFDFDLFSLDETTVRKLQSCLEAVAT
Compound,IC50 (Protein AF-9) [µM],Ki (Protein AF-9) [µM],IC50 (Protein ENL) [µM],Ki (Protein ENL) [µM]
CC[C@H](C)[C@H](NC(=O)[C@H](CO)NC(=O)[C@H](Cc1ccccc1)NC(=O)[C@@H]1CCCN1C(=O)[C@H](CC(C)C)NC(C)=O)C(=O)N1CCC[C@H]1C(=O)N[C@@H](CC(C)C)C(=O)N(C)C (Ac-LPFSIPL-NMe2),30.5,5.62,177,62
CC[C@H](C)[C@H](NC(=O)[C@@H]1CCCN1C(=O)[C@H](CC(C)C)NC(C)=O)C(=O)N[C@@H](CO)C(=O)N[C@@H](Cc1ccccc1)C(=O)N1CCC[C@H]1C(=O)N[C@@H](CC(C)C)C(=O)N(C)C (Ac-LPISFPL-NMe2),1.66,0.28,22.7,7.73
CC[C@H](C)[C@H](NC(=O)[C@@H]1CCCN1C(=O)[C@H](CC(C)C)NC(C)=O)C(=O)N[C@@H](CO)C(=O)N[C@H](C(=O)N1CCC[C@H]1C(=O)N[C@@H](CC(C)C)C(=O)N(C)C)[C@@H](C)CC (Ac-LPISIPL-NMe2),1.78,0.3,6.83,2.15
CC[C@H](C)[C@H](NC(=O)[C@@H]1CCCN1C(=O)[C@H](CC(C)C)NC(C)=O)C(=O)N[C@@H](CO)C(=O)N[C@@H](CC(C)C)C(=O)N1CCC[C@H]1C(=O)N[C@@H](CC(C)C)C(=O)N(C)C (Ac-LPISLPL-NMe2),4.66,0.83,18.6,6.29
CC[C@H](C)[C@H](NC(=O)[C@@H]1CCCN1C(=O)[C@H](CC(C)C)NC(C)=O)C(=O)N[C@@H](CO)C(=O)N[C@@H](Cc1c[nH]c2ccccc12)C(=O)N1CCC[C@H]1C(=O)N[C@@H](CC(C)C)C(=O)N(C)C (Ac-LPISWPL-NMe2),2.37,0.41,7.42,2.35
CC[C@H](C)[C@H](NC(=O)[C@@H]1CCCN1C(=O)[C@H](CC(C)C)NC(C)=O)C(=O)N[C@@H](CO)C(=O)N[C@@H](Cc1cccc2ccccc12)C(=O)N1CCC[C@H]1C(=O)N[C@@H](CC(C)C)C(=O)N(C)C (Ac-LPIS[1Nal]PL-NMe2),14.2,2.6,57.8,20.1
CC[C@H](C)[C@H](NC(=O)[C@@H]1CCCN1C(=O)[C@H](CC(C)C)NC(C)=O)C(=O)N[C@@H](CO)C(=O)N[C@@H](Cc1ccc2ccccc2c1)C(=O)N1CCC[C@H]1C(=O)N[C@@H](CC(C)C)C(=O)N(C)C (Ac-LPIS[2Nal]PL-NMe2),4.11,0.73,42.2,14.6
CC[C@H](C)[C@H](NC(=O)[C@@H]1CCCN1C(=O)[C@H](CC(C)C)NC(C)=O)C(=O)N[C@@H](CO)C(=O)N[C@@H](CC1CCCC1)C(=O)N1CCC[C@H]1C(=O)N[C@@H](CC(C)C)C(=O)N(C)C (Ac-LPIS[Ala(cPent)]PL-NMe2),0.85,0.13,2.17,0.51
CC[C@H](C)[C@H](NC(=O)[C@@H]1CCCN1C(=O)[C@H](CC(C)C)NC(C)=O)C(=O)N[C@@H](CO)C(=O)N[C@@H](CC1CCCCC1)C(=O)N1CCC[C@H]1C(=O)N[C@@H](CC(C)C)C(=O)N(C)C (Ac-LPIS[Cha]PL-NMe2),1.14,0.18,6.06,1.88
CC[C@H](C)[C@H](NC(=O)[C@@H]1CCCN1C(=O)[C@H](CC(C)C)NC(C)=O)C(=O)N[C@@H](CO)C(=O)N[C@H](C(=O)N1CCC[C@H]1C(=O)N[C@@H](CC(C)C)C(=O)N(C)C)C1CCCCC1 (Ac-LPIS[Chg]PL-NMe2),3.49,0.62,10.5,3.44
CC[C@H](C)[C@H](NC(=O)[C@@H]1CCCN1C(=O)[C@H](CC(C)C)NC(C)=O)C(=O)N[C@@H](CO)C(=O)N[C@H](C(=O)N1CCC[C@H]1C(=O)N[C@@H](CC(C)C)C(=O)N(C)C)C1CCCC1 (Ac-LPIS[Gly(cPent)]PL-NMe2),1.49,0.25,4.54,1.34
CC[C@H](C)[C@H](NC(=O)[C@@H]1CCCN1C(=O)[C@H](CC(C)C)NC(C)=O)C(=O)N[C@@H](CN)C(=O)N[C@H](C(=O)N1CCC[C@H]1C(=O)N[C@@H](CC(C)C)C(=O)N(C)C)[C@@H](C)CC (Ac-LPI[Dap]IPL-NMe2),1.2,0.19,4.25,1.24
CC[C@H](C)[C@H](NC(=O)[C@@H]1CCCN1C(=O)[C@H](CC(C)C)NC(C)=O)C(=O)N[C@@H](CN)C(=O)N[C@@H](CC1CCCC1)C(=O)N1CCC[C@H]1C(=O)N[C@@H](CC(C)C)C(=O)N(C)C (Ac-LPI[Dap][Ala(cPent)]PL-NMe2),0.12,0.02,0.39,0.09
CC[C@H](C)[C@H](NC(=O)[C@@H]1CCCN1C(=O)[C@H](CC(C)C)NC(C)=O)C(=O)N[C@@H](CCCN)C(=O)N[C@H](C(=O)N1CCC[C@H]1C(=O)N[C@@H](CC(C)C)C(=O)N(C)C)[C@@H](C)CC (Ac-LPI[Orn]IPL-NMe2),24.3,4.25,172,60.2
CC[C@H](C)[C@H](NC(=O)[C@H](CO)NC(=O)[C@H](CC(C)C)NC(=O)[C@@H]1CCCN1C(=O)[C@H](CC(C)C)NC(C)=O)C(=O)N1CCC[C@H]1C(=O)N[C@@H](CC(C)C)C(=O)N(C)C (Ac-LPLSIPL-NMe2),6.4,1.16,43.9,15.2
CC[C@H](C)[C@H](NC(=O)[C@H](CO)NC(=O)[C@@H](NC(=O)[C@@H]1CCCN1C(=O)[C@H](CC(C)C)NC(C)=O)C(C)C)C(=O)N1CCC[C@H]1C(=O)N[C@@H](CC(C)C)C(=O)N(C)C (Ac-LPVSIPL-NMe2),1.1,0.17,3.6,1.01
CCn1cc(-c2ccccc2)nc1[C@@H]1CCCN1C(=O)[C@H](CC1CCCC1)NC(=O)[C@H](CN)NC(=O)[C@@H](NC(=O)[C@@H]1CCCN1C(=O)[C@H](CC(C)C)NC(C)=O)C(C)C (Ac-LPV[Dap][Ala(cPent)]-X1),0.341,0.05,1.57,0.369
CC(=O)N[C@@H](CC(C)C)C(=O)N1CCC[C@H]1C(=O)N[C@H](C(=O)N[C@@H](CN)C(=O)N[C@@H](CC1CCCC1)C(=O)N1CCC[C@H]1c1nc(-c2ccccc2)cn1C(C)C)C(C)C (Ac-LPV[Dap][Ala(cPent)]-X2),0.369,0.057,1.22,0.287
CC(=O)N[C@@H](CC(C)C)C(=O)N1CCC[C@H]1C(=O)N[C@H](C(=O)N[C@@H](CN)C(=O)N[C@@H](CC1CCCC1)C(=O)N1CCC[C@H]1c1nc(-c2ccccc2)cn1CC1CCCCC1)C(C)C (Ac-LPV[Dap][Ala(cPent)]-X3),0.082,0.013,0.427,0.101
CC(=O)N[C@@H](CC(C)C)C(=O)N1CCC[C@H]1C(=O)N[C@H](C(=O)N[C@@H](CN)C(=O)N[C@@H](CC1CCCC1)C(=O)N1CCC[C@H]1c1nc(-c2ccccc2)cn1C)C(C)C (Ac-LPV[Dap][Ala(cPent)]-X4),0.372,0.057,1.77,0.417
CC[C@H](C)[C@H](NC(=O)[C@H](CO)NC(=O)[C@H](CC1CC1)NC(=O)[C@@H]1CCCN1C(=O)[C@H](CC(C)C)NC(C)=O)C(=O)N1CCC[C@H]1C(=O)N[C@@H](CC(C)C)C(=O)N(C)C (Ac-LP[Ala(cPr)]SIPL-NMe2),4.29,0.78,14.6,4.89
CC[C@H](C)[C@H](NC(=O)[C@H](CO)NC(=O)[C@H](CC1CCC1)NC(=O)[C@@H]1CCCN1C(=O)[C@H](CC(C)C)NC(C)=O)C(=O)N1CCC[C@H]1C(=O)N[C@@H](CC(C)C)C(=O)N(C)C (Ac-LP[Cba]SIPL-NMe2),7.23,1.31,23.6,8.04
CC(C)[C@H](NC(=O)[C@@H]1CCCN1C(=O)c1ccccc1)C(=O)N[C@@H](CN)C(=O)N[C@@H](CC1CCCC1)C(=O)N1CCC[C@H]1c1nc(-c2ccccc2)cn1CC1CCCCC1 (Bz-PV[Dap][Ala(cPent)]-X3),0.057,0.009,0.504,0.119
CC(C)CCC(=O)N1CCC[C@H]1C(=O)N[C@H](C(=O)N[C@@H](CN)C(=O)N[C@@H](CC1CCCC1)C(=O)N1CCC[C@H]1c1nc(-c2ccccc2)cn1CC1CCCCC1)C(C)C ({Pentanoyl(4-Me)}-PV[Dap][Ala(cPent)]-X3),0.149,0.023,0.237,0.056
